Publication PMC5418449, “Characterisation of CCT271850, a selective, oral and potent MPS1 inhibitor, used to directly measure in vivo MPS1 inhibition vs therapeutic efficacy” (British Journal of Cancer, 2017)

Tests used:
Set-up in all cases: 14-day clonogenic growth inhibition assay, human cancer cell line panel
Settings in all cases: 14-day clonogenic assay; inhibitor; read-out: Table S1. IC50 of CCT271850 determined by MTT and clonogenic assays (CA). / All cell lines were tested at least 2 times. / 14-day CA
SKOV3 = test system: SKOV3
Procedure: (§1) To evaluate CCT271850 antiproliferation effects in a large panel of human cancer cell lines, 91 cell lines were treated for 72 h and 14 days at different compound concentrations in growth inhibition assays. The growth inhibition values as measured by IC50 are summarised in Table 2 and Supplementary Table S1. […] Cell lines from colon and head and neck cancers were among the most sensitive.

TOV21G = test system: TOV21G
Procedure: as §1

PT45 = test system: PT45
Procedure: as §1

Lon-HN5 = test system: Lon-HN5
Procedure: as §1

Det562 = test system: Det562
Procedure: as §1

PATU-8988T = test system: PATU-8988T
Procedure: as §1

PATU-8902 = test system: PATU-8902
Procedure: as §1

HN3 = test system: HN3
Procedure: as §1

OAW42 = test system: OAW42
Procedure: as §1

KGN = test system: KGN
Procedure: as §1

PATU-8988S = test system: PATU-8988S
Procedure: as §1

SMOV2 = test system: SMOV2
Procedure: as §1

CaoV3 = test system: CaoV3
Procedure: as §1

Suit-2 = test system: Suit-2
Procedure: as §1

EF027 = test system: EF027
Procedure: as §1

IGROV1 = test system: IGROV1
Procedure: as §1

PANC-1 = test system: PANC-1
Procedure: as §1

OVCAR8 = test system: OVCAR8
Procedure: as §1

Kuramochi = test system: Kuramochi
Procedure: as §1

011B = test system: 011B
Procedure: as §1

OVCAR3 = test system: OVCAR3
Procedure: as §1

SW626 = test system: SW626
Procedure: as §1

CAL27 = test system: CAL27
Procedure: as §1

TYK-Nu = test system: TYK-Nu
Procedure: as §1

OAW28 = test system: OAW28
Procedure: as §1

EF021 = test system: EF021
Procedure: as §1

O13 = test system: O13
Procedure: as §1

PJ41 = test system: PJ41
Procedure: as §1

RMG1 = test system: RMG1
Procedure: as §1

A2780 = test system: A2780
Procedure: as §1

005B = test system: 005B
Procedure: as §1

Miapaca-2 = test system: Miapaca-2
Procedure: as §1

CFPAC-1 = test system: CFPAC-1
Procedure: as §1

OVCAR4 = test system: OVCAR4
Procedure: as §1

OVCAR5 = test system: OVCAR5
Procedure: as §1

015B = test system: 015B
Procedure: as §1

PJ34 = test system: PJ34
Procedure: as §1

## COc1cc(-c2cnn(C)c2)ccc1Nc1ncc2ccnc(N[C@@H](C)C(C)(C)C)c2n1 [34h, CCT271850]
SKOV3
  IC50: 58 nM
TOV21G
  IC50: 7.8 nM
PT45
  IC50: 59 nM
Lon-HN5
  IC50: 44 nM
Det562
  IC50: 46 nM
PATU-8988T
  IC50: 87 nM
PATU-8902
  IC50: 28 nM
HN3
  IC50: 5.2 nM
OAW42
  IC50: 57 nM
KGN
  IC50: 106 nM
PATU-8988S
  IC50: 110 nM
SMOV2
  IC50: 14 nM
CaoV3
  IC50: 75 nM
Suit-2
  IC50: 87 nM
EF027
  IC50: 37 nM
IGROV1
  IC50: 48 nM
PANC-1
  IC50: 74 nM
OVCAR8
  IC50: 101 nM
Kuramochi
  IC50: 34 nM
011B
  IC50: 21 nM
OVCAR3
  IC50: 99 nM
SW626
  IC50: 32 nM
CAL27
  IC50: 4 nM
TYK-Nu
  IC50: 73 nM
OAW28
  IC50: 61 nM
EF021
  IC50: 72 nM
O13
  IC50: 21 nM
PJ41
  IC50: 0.8 nM
RMG1
  IC50: 42 nM
A2780
  IC50: 105 nM
005B
  IC50: 45 nM
Miapaca-2
  IC50: 68 nM
CFPAC-1
  IC50: 63 nM
OVCAR4
  IC50: 62 nM
OVCAR5
  IC50: 82 nM
015B
  IC50: 59 nM
PJ34
  IC50: 35 nM
